The record followed here is PubChem BioAssay AID1845205 (Molecular Pharmacology Branch, DTP, NCI, 2023).

For the experiment, the system named is MPNST multicellular tumor spheroids, viability % test/control. Description: Anticancer human tumor MPNST cell line growth inhibition.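 For all read-outs here: spheroids exposed to agents for seven days after three days of growth.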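 For viability, T/C: luminescence signal used as surrogate for viable cell amount.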 Conditions: for IC50: curve of first compound; for viability, T/C: stronger effect = lower value. Summed up: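 Single agents and combinations were tested on spheroids built from tumor cells plus HUVEC and hMSC, at half-log dilutions starting at or near clinical Cmax, else 10 microM; final DMSO 0.25% (v/v).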

Where [1] appears, read: second compound 0.003 µM, first compound 0.00949 µM.
Where [2] appears, read: second compound 0.003 µM, first compound 0.03 µM.
The mark [3] stands for this setting: second compound 0.003 µM, first compound 0.0949 µM.
The mark [4] stands for this setting: second compound 0.003 µM, first compound 0.3 µM.
The mark [5] stands for this setting: second compound 0.003 µM, first compound 0.949 µM.
The mark [6] stands for this setting: second compound 0.003 µM, first compound 3 µM.

What is called IC50 is the concentration that gives 50% inhibition. The term viability, T/C denotes the result in the treated group divided by that in the control group, in per cent.

Each structure is given as a SMILES string. Several values for one entry are separate records, joined by “and”; a condition that tells them apart may be missing. Equal entries are not always repeated. Where only a bound is given, the exact number is not on record here.

Take `CNCc1ccc(-c2cc(-c3nc(-c4ccc(S(=O)(=O)C(C)C)cc4)cnc3N)on2)cc1` + CC[C@@]1(O)C(=O)OCc2c1cc1n(c2=O)Cc2cc3c(CN(C)C)c(O)ccc3nc2-1: the 50% inhibitory concentration (IC50) (second compound 0.003 µM) was more than 3000 nM; the IC50 (second compound 0.00949 µM) was more than 3000 nM; the IC50 (second compound 0.03 µM) is more than 3000 nM; the IC50 (second compound 0.0949 µM) is more than 3000 nM; the IC50 (second compound 0.3 µM) is less than 9.49 nM. The viability, T/C reads like this: under setting [1], 104%; under setting [2], 99.3%; under setting [3], 71.8%; under setting [4], 61.4%; under setting [5], 64.3%; under setting [6], 61.7%. In addition, the viability, T/C by setting is: (second compound 0.00949 µM, first compound 0.00949 µM) 75.6%; (second compound 0.00949 µM, first compound 0.03 µM) 74.3%; (second compound 0.00949 µM, first compound 0.0949 µM) 59.7%; (second compound 0.00949 µM, first compound 0.3 µM) 58%; (second compound 0.00949 µM, first compound 0.949 µM) 60.3%; (second compound 0.00949 µM, first compound 3 µM) 66.6%. Moreover, the viability, T/C reads like this: (second compound 0.03 µM, first compound 0.00949 µM) 61.9%; (second compound 0.03 µM, first compound 0.03 µM) 55.1%; (second compound 0.03 µM, first compound 0.0949 µM) 53.8%; (second compound 0.03 µM, first compound 0.3 µM) 57.1%; (second compound 0.03 µM, first compound 0.949 µM) 63.7%; (second compound 0.03 µM, first compound 3 µM) 64.9%. The viability, T/C reads like this: (second compound 0.0949 µM, first compound 0.00949 µM) 57.7%; (second compound 0.0949 µM, first compound 0.03 µM) 54.8%; (second compound 0.0949 µM, first compound 0.0949 µM) 56.8%; (second compound 0.0949 µM, first compound 0.3 µM) 64.7%; (second compound 0.0949 µM, first compound 0.949 µM) 58.1%; (second compound 0.0949 µM, first compound 3 µM) 70.7%. The viability, T/C was 46.1% (second compound 0.3 µM, first compound 0.00949 µM); 45% (second compound 0.3 µM, first compound 0.03 µM); 48.8% (second compound 0.3 µM, first compound 0.0949 µM); 50% (second compound 0.3 µM, first compound 0.3 µM); 55.5% (second compound 0.3 µM, first compound 0.949 µM); 52.7% (second compound 0.3 µM, first compound 3 µM).
For `Cc1sc2c(c1C)C(c1ccc(Cl)cc1)=NC(CC(=O)Nc1ccc(O)cc1)c1nnc(C)n1-2` (configuration not stated), the viability, T/C is 124% and 109% and 90.5% (compound 0.00949 µM); 110% and 117% and 95.1% (compound 0.03 µM); 92.3% and 99.1% and 60.3% (compound 0.0949 µM); 63.9% and 75.2% and 36.5% (compound 0.3 µM); 51.5% and 55.6% and 23.4% (compound 0.949 µM); 46.8% and 52.1% and 25.7% (compound 3 µM).
`CNCc1ccc(-c2cc(-c3nc(-c4ccc(S(=O)(=O)C(C)C)cc4)cnc3N)on2)cc1` + COc1cc2c(cc1O)CCNC21CSC2c3c(OC(C)=O)c(C)c4c(c3C(COC1=O)N1C(O)C3Cc5cc(C)c(OC)c(O)c5C(C21)N3C)OCO4: the IC50 was 283 nM (second compound 30 pM); more than 3000 nM (second compound 94.9 pM); 96.6 nM (second compound 0.0003 µM); less than 9.49 nM (second compound 0.000949 µM); less than 9.49 nM (second compound 0.003 µM). Also, the viability, T/C runs as follows: (second compound 30 pM, first compound 0.00949 µM) 83.5%; (second compound 30 pM, first compound 0.03 µM) 105%; (second compound 30 pM, first compound 0.0949 µM) 63.5%; (second compound 30 pM, first compound 0.3 µM) 54.8%; (second compound 30 pM, first compound 0.949 µM) 47.2%; (second compound 30 pM, first compound 3 µM) 45.9%. The viability, T/C was 79% (second compound 94.9 pM, first compound 0.00949 µM); 74% (second compound 94.9 pM, first compound 0.03 µM); 70.4% (second compound 94.9 pM, first compound 0.0949 µM); 55.6% (second compound 94.9 pM, first compound 0.3 µM); 49.7% (second compound 94.9 pM, first compound 0.949 µM); 53.6% (second compound 94.9 pM, first compound 3 µM). Moreover, the viability, T/C reads like this: (second compound 0.0003 µM, first compound 0.00949 µM) 68.1%; (second compound 0.0003 µM, first compound 0.03 µM) 70.8%; (second compound 0.0003 µM, first compound 0.0949 µM) 50.1%; (second compound 0.0003 µM, first compound 0.3 µM) 42.4%; (second compound 0.0003 µM, first compound 0.949 µM) 46.3%; (second compound 0.0003 µM, first compound 3 µM) 46.8%. For the same compound, the viability, T/C by setting is: (second compound 0.000949 µM, first compound 0.00949 µM) 39%; (second compound 0.000949 µM, first compound 0.03 µM) 39.5%; (second compound 0.000949 µM, first compound 0.0949 µM) 38.5%; (second compound 0.000949 µM, first compound 0.3 µM) 36.2%; (second compound 0.000949 µM, first compound 0.949 µM) 46%; (second compound 0.000949 µM, first compound 3 µM) 48.6%. Further, the viability, T/C under setting [1] was 6.71%; the viability, T/C under setting [2] was 17.8%; the viability, T/C under setting [3] is 18.7%; the viability, T/C under setting [4] was 8.25%; the viability, T/C under setting [5] was 12.3%; the viability, T/C under setting [6] is 8.15%.
In the case of `COc1ccc([C@@H](O)c2cc(-c3ncnc4cc(N5CCOCC5)ccc34)c(F)cc2Cl)nn1` + CC[C@@]1(O)C(=O)OCc2c1cc1n(c2=O)Cc2cc3c(CN(C)C)c(O)ccc3nc2-1, the half-inhibitory concentration (IC50) runs as follows: (second compound 0.003 µM) 1170 nM; (second compound 0.00949 µM) 641 nM; (second compound 0.03 µM) less than 31.6 nM; (second compound 0.0949 µM) less than 31.6 nM; (second compound 0.3 µM) less than 31.6 nM. The viability, T/C is 96.3% (second compound 0.003 µM, first compound 0.0316 µM); 77.6% (second compound 0.003 µM, first compound 0.1 µM); 69.2% (second compound 0.003 µM, first compound 0.316 µM); 55.6% (second compound 0.003 µM, first compound 1 µM); 33.5% (second compound 0.003 µM, first compound 3.16 µM); 14.6% (second compound 0.003 µM, first compound 10 µM). Moreover, the viability, T/C reads like this: (second compound 0.00949 µM, first compound 0.0316 µM) 78.4%; (second compound 0.00949 µM, first compound 0.1 µM) 81.6%; (second compound 0.00949 µM, first compound 0.316 µM) 57.7%; (second compound 0.00949 µM, first compound 1 µM) 41%; (second compound 0.00949 µM, first compound 3.16 µM) 33%; (second compound 0.00949 µM, first compound 10 µM) 17.3%. Also, the viability, T/C was 42.7% (second compound 0.03 µM, first compound 0.0316 µM); 42.9% (second compound 0.03 µM, first compound 0.1 µM); 42.6% (second compound 0.03 µM, first compound 0.316 µM); 36.1% (second compound 0.03 µM, first compound 1 µM); 21% (second compound 0.03 µM, first compound 3.16 µM); 16.4% (second compound 0.03 µM, first compound 10 µM). For the same compound, the viability, T/C runs as follows: (second compound 0.0949 µM, first compound 0.0316 µM) 44.7%; (second compound 0.0949 µM, first compound 0.1 µM) 39.2%; (second compound 0.0949 µM, first compound 0.316 µM) 37.6%; (second compound 0.0949 µM, first compound 1 µM) 34.7%; (second compound 0.0949 µM, first compound 3.16 µM) 22.8%; (second compound 0.0949 µM, first compound 10 µM) 15.7%. Also, the viability, T/C is, setting by setting: (second compound 0.3 µM, first compound 0.0316 µM) 36.1%; (second compound 0.3 µM, first compound 0.1 µM) 39.7%; (second compound 0.3 µM, first compound 0.316 µM) 32.6%; (second compound 0.3 µM, first compound 1 µM) 27.6%; (second compound 0.3 µM, first compound 3.16 µM) 18%; (second compound 0.3 µM, first compound 10 µM) 10.3%.
For `COc1cc2c(cc1O)CCNC21CSC2c3c(OC(C)=O)c(C)c4c(c3C(COC1=O)N1C(O)C3Cc5cc(C)c(OC)c(O)c5C(C21)N3C)OCO4` (configuration not stated), the viability, T/C (compound 0.003 µM) was 12.3% [middle of 10 runs].
